Measured values as given in PubChem BioAssay AID2060623 (Molecular Pharmacology Branch, DTP, NCI, 2025).
pIC50: −log10 of the molar value.

System: 227483-062-R1-J1-PDC complex spheroids with HUVEC/MSC, viability
Experiment: Anticancer human tumor 227483-062-R1-J1-PDC patient-derived pancreatic carcinoma cell line growth inhibition [CLK]
Conditions: for pIC50: curve of first compound; for viability, T/C: stronger effect = lower value
Outline: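 Multi-cell-type spheroids combined patient-derived tumor cells with HUVEC endothelial cells and human mesenchymal stem cells. Paired agents were dosed in half-log steps down from about clinical Cmax, or from 10 microM where Cmax was unknown.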
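Also: spheroids exposed to compounds for seven days before readout.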
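For viability, T/C in this document: percent of DMSO vehicle control luminescence as 100% viability.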

CC(CO)NC(=O)c1cc(-c2ccc(Cl)cc2)nn(-c2cnn(C)c2)c1=O (configuration not stated) + CNC(=O)c1ccc(Nc2nc(OC3CCCC3)c3c(-c4ccc5nc(C)oc5c4)c[nH]c3n2)c(OC)c1
pIC50 (second compound 0.0316 µM): < 5.00 | pIC50 (second compound 0.1 µM): < 5.00 | pIC50 (second compound 0.316 µM): < 5.00 | pIC50 (second compound 1 µM): < 5.00 | pIC50 (second compound 3.16 µM): > 7.50 | pIC50 (second compound 10 µM): > 7.50 | viability, T/C (second compound 0.0316 µM, first compound 0.0316 µM): 100% | viability, T/C (second compound 0.0316 µM, first compound 0.1 µM): 80.3% | viability, T/C (second compound 0.0316 µM, first compound 0.316 µM): 103% | viability, T/C (second compound 0.0316 µM, first compound 1 µM): 99.4% | viability, T/C (second compound 0.0316 µM, first compound 3.16 µM): 86.6% | viability, T/C (second compound 0.0316 µM, first compound 10 µM): 84.7% | viability, T/C (second compound 0.1 µM, first compound 0.0316 µM): 109% | viability, T/C (second compound 0.1 µM, first compound 0.1 µM): 102% | viability, T/C (second compound 0.1 µM, first compound 0.316 µM): 96.1% | viability, T/C (second compound 0.1 µM, first compound 1 µM): 91.4% | viability, T/C (second compound 0.1 µM, first compound 3.16 µM): 78.3% | viability, T/C (second compound 0.1 µM, first compound 10 µM): 82.6% | viability, T/C (second compound 0.316 µM, first compound 0.0316 µM): 80.2% | viability, T/C (second compound 0.316 µM, first compound 0.1 µM): 90.7% | viability, T/C (second compound 0.316 µM, first compound 0.316 µM): 85.5% | viability, T/C (second compound 0.316 µM, first compound 1 µM): 77.5% | viability, T/C (second compound 0.316 µM, first compound 3.16 µM): 83.7% | viability, T/C (second compound 0.316 µM, first compound 10 µM): 70.8% | viability, T/C (second compound 1 µM, first compound 0.0316 µM): 62.6% | viability, T/C (second compound 1 µM, first compound 0.1 µM): 68.2% | viability, T/C (second compound 1 µM, first compound 0.316 µM): 61.4% | viability, T/C (second compound 1 µM, first compound 1 µM): 54.1% | viability, T/C (second compound 1 µM, first compound 3.16 µM): 64.9% | viability, T/C (second compound 1 µM, first compound 10 µM): 56.9% | viability, T/C (second compound 3.16 µM, first compound 0.0316 µM): 45.5% | viability, T/C (second compound 3.16 µM, first compound 0.1 µM): 50.3% | viability, T/C (second compound 3.16 µM, first compound 0.316 µM): 46% | viability, T/C (second compound 3.16 µM, first compound 1 µM): 45.5% | viability, T/C (second compound 3.16 µM, first compound 3.16 µM): 49% | viability, T/C (second compound 3.16 µM, first compound 10 µM): 38.3% | viability, T/C (second compound 10 µM, first compound 0.0316 µM): 36.5% | viability, T/C (second compound 10 µM, first compound 0.1 µM): 41.8% | viability, T/C (second compound 10 µM, first compound 0.316 µM): 51.3% | viability, T/C (second compound 10 µM, first compound 1 µM): 37.3% | viability, T/C (second compound 10 µM, first compound 3.16 µM): 30.6% | viability, T/C (second compound 10 µM, first compound 10 µM): 36%
